Laboratory results reported in PubChem BioAssay AID1963827 (Molecular Pharmacology Branch, DTP, NCI, 2024).

Tested on: 994946-033-R-J1-PDC complex spheroid viability
Assay: Anticancer human tumor 994946-033-R-J1-PDC patient-derived melanoma cell line growth inhibition [POLQ]
Conditions: for IC50: curve of first compound; for viability, T/C: stronger effect = lower value
Outline: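 Complex spheroid viability model combining PDC tumour cells with endothelial (HUVEC) and MSC stromal cells. Novobiocin, ART-558 or RP6685 were tested singly and in combination with standard and investigational anticancer drugs. Each was titrated in half-log steps from near clinical Cmax, or from 10 microM where Cmax was unknown.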

[1] = second compound 0.0316 µM, first compound 0.0316 µM
[2] = second compound 0.0316 µM, first compound 0.1 µM
[3] = second compound 0.0316 µM, first compound 0.316 µM
[4] = second compound 0.0316 µM, first compound 1 µM
[5] = second compound 0.0316 µM, first compound 3.16 µM
[6] = second compound 0.0316 µM, first compound 10 µM
[7] = second compound 0.1 µM, first compound 0.0316 µM
[8] = second compound 0.1 µM, first compound 0.1 µM
[9] = second compound 0.1 µM, first compound 0.316 µM
[10] = second compound 0.1 µM, first compound 1 µM
[11] = second compound 0.1 µM, first compound 3.16 µM
[12] = second compound 0.1 µM, first compound 10 µM
[13] = second compound 0.316 µM, first compound 0.0316 µM
[14] = second compound 0.316 µM, first compound 0.1 µM
[15] = second compound 0.316 µM, first compound 0.316 µM
[16] = second compound 0.316 µM, first compound 1 µM
[17] = second compound 0.316 µM, first compound 3.16 µM
[18] = second compound 0.316 µM, first compound 10 µM
[19] = second compound 1 µM, first compound 0.0316 µM
[20] = second compound 1 µM, first compound 0.1 µM
[21] = second compound 1 µM, first compound 0.316 µM
[22] = second compound 1 µM, first compound 1 µM
[23] = second compound 1 µM, first compound 3.16 µM
[24] = second compound 1 µM, first compound 10 µM
[25] = second compound 3.16 µM, first compound 0.0316 µM
[26] = second compound 3.16 µM, first compound 0.1 µM
[27] = second compound 3.16 µM, first compound 0.316 µM
[28] = second compound 3.16 µM, first compound 1 µM
[29] = second compound 3.16 µM, first compound 3.16 µM
[30] = second compound 3.16 µM, first compound 10 µM
[31] = second compound 10 µM, first compound 0.0316 µM
[32] = second compound 10 µM, first compound 0.1 µM
[33] = second compound 10 µM, first compound 0.316 µM
[34] = second compound 10 µM, first compound 1 µM
[35] = second compound 10 µM, first compound 3.16 µM
[36] = second compound 10 µM, first compound 10 µM
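Further: spheroids exposed to drugs for 7 days.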
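Wherever viability, T/C is given: 100% = DMSO vehicle treated spheroids.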

With CCc1cc2c(N3CCc4c(cc(Cn5ccnc5)cc4-c4cn(C)nc4C(F)(F)F)C3=O)cc(C)nc2c(OC)n1 + Nc1ccc(C#CCN(C(=O)Cc2ncc(C(F)(F)F)cc2C(F)(F)F)c2ccc(F)cc2)nn1 the IC50 (second compound 0.0316 µM) was 8.52 µM, the IC50 (second compound 0.1 µM) was > 10 µM and the IC50 (second compound 0.316 µM) was > 10 µM. The IC50 (second compound 1 µM) was > 10 µM, the IC50 (second compound 3.16 µM) was > 10 µM and the IC50 (second compound 10 µM) was > 10 µM. It also gave a viability, T/C [1] of 81.9%, a viability, T/C [2] of 107% and a viability, T/C [3] of 72.6%. The viability, T/C [4] was 68.3%, the viability, T/C [5] was 103% and the viability, T/C [6] was 44%. It also gave a viability, T/C [7] of 78.7%, a viability, T/C [8] of 102% and a viability, T/C [9] of 94.4%. For the same compound, the viability, T/C [10] was 93%, the viability, T/C [11] was 71.2% and the viability, T/C [12] was 54.3%. The viability, T/C [13] was 73%, the viability, T/C [14] was 79.8% and the viability, T/C [15] was 75.5%. The viability, T/C [16] was 87%, the viability, T/C [17] was 64% and the viability, T/C [18] was 89.1%. It also gave a viability, T/C [19] of 98.6%, a viability, T/C [20] of 71.5% and a viability, T/C [21] of 89.5%. It also gave a viability, T/C [22] of 51.8%, a viability, T/C [23] of 78.5% and a viability, T/C [24] of 72.2%. For the same compound, the viability, T/C [25] was 93.4%, the viability, T/C [26] was 84.3% and the viability, T/C [27] was 81.9%. For the same compound, the viability, T/C [28] was 65.7%, the viability, T/C [29] was 86.5% and the viability, T/C [30] was 65.5%. It also gave a viability, T/C [31] of 107%, a viability, T/C [32] of 96.1% and a viability, T/C [33] of 106%. For the same compound, the viability, T/C [34] was 89.2%, the viability, T/C [35] was 69.9% and the viability, T/C [36] was 49.9%.

O=C(c1cc(Cc2n[nH]c(=O)c3ccccc23)ccc1F)N1CCN(C(=O)C2CC2)CC1 + Cc1cccc(N(C)C(=O)C2C(O)CCN2c2nc(C)cc(C(F)(F)F)c2C#N)c1 showed an IC50 (second compound 0.0316 µM) of 6.12 µM, an IC50 (second compound 0.1 µM) of 4.16 µM and an IC50 (second compound 0.316 µM) of 8.94 µM. The IC50 (second compound 1 µM) was 6.77 µM, the IC50 (second compound 3.16 µM) was 4.89 µM and the IC50 (second compound 10 µM) was > 10 µM. The viability, T/C [1] was 103%, the viability, T/C [2] was 92.8% and the viability, T/C [3] was 82.3%. The viability, T/C [4] was 94.2%, the viability, T/C [5] was 80.2% and the viability, T/C [6] was 27.3%. It also gave a viability, T/C [7] of 100%, a viability, T/C [8] of 105% and a viability, T/C [9] of 89.9%. For the same compound, the viability, T/C [10] was 69.6%, the viability, T/C [11] was 57.9% and the viability, T/C [12] was 35.9%. For the same compound, the viability, T/C [13] was 106%, the viability, T/C [14] was 95.3% and the viability, T/C [15] was 82.5%. The viability, T/C [16] was 86.8%, the viability, T/C [17] was 92% and the viability, T/C [18] was 45.5%. It also gave a viability, T/C [19] of 79.7%, a viability, T/C [20] of 102% and a viability, T/C [21] of 81.7%. The viability, T/C [22] was 84.3%, the viability, T/C [23] was 75.6% and the viability, T/C [24] was 37%. It also gave a viability, T/C [25] of 105%, a viability, T/C [26] of 97.6% and a viability, T/C [27] of 79.5%. The viability, T/C [28] was 88.3%, the viability, T/C [29] was 56.8% and the viability, T/C [30] was 33.3%. It also gave a viability, T/C [31] of 110%, a viability, T/C [32] of 93.4% and a viability, T/C [33] of 83.3%. It also gave a viability, T/C [34] of 78%, a viability, T/C [35] of 77.5% and a viability, T/C [36] of 56.1%.
